Measured values as given in PubChem BioAssay AID651672 (The Scripps Research Institute Molecular Screening Center, 2012).
Several values for one entry are separate records, joined by “and”; a condition that tells them apart may be missing. Identical values can stand only once. Activity calls are given as the source filed them. How the calls were made is not given here.

Target: Perilipin-1 (Homo sapiens) (UniProt O60240)
Test: inhibitors of ABHD5-PLIN1 binding, dose response, counter-screen for ABHD5-PLIN5 interaction inhibitor project, biochemical, luminescence (AID 651672);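 further: split Gaussia luciferase complementation between ABHD5 and PLIN1 fusion fragments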

Perilipin-1 (Homo sapiens), sequence (O60240 whole entry, looked up, the tested form may be a part): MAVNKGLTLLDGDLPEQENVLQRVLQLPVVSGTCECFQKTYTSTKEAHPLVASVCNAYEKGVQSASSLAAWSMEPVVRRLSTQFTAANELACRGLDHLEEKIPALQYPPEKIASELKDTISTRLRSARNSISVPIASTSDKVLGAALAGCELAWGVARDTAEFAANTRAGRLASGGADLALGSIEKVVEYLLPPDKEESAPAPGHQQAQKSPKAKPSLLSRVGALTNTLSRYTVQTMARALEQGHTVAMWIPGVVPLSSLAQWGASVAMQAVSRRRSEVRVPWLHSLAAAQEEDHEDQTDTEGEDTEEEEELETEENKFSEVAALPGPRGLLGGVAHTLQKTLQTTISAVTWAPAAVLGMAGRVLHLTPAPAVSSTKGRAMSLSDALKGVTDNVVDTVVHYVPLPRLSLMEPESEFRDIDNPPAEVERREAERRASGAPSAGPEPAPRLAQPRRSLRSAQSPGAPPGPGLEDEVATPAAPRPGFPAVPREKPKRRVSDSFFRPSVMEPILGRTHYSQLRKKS

| SMILES | IC50 |
| --- | --- |
| Cc1cccc(C)c1NC(=O)C(c1ccc(C#N)cc1)n1c(=O)c(-c2ccco2)nc2ccccc21 (stereo unspecified) | 2660 nM |
| O=C(/C=C/c1ccc(NC(=O)c2ccccc2-c2ccccc2C(=O)O)cc1)c1ccccc1 | 8030 nM |
| Cc1ccc2sc(N(CCCN(C)C)C(=O)CN3C(=O)c4ccccc4C3=O)nc2c1C | inactive |
| O=C(NCc1ccccc1)C(C1CC1)n1c(=O)c(-c2ccco2)nc2ccccc21 (stereo unspecified) | 6050 nM |
| COC/C=C/C1=CC2=CC(=O)C(C)(OC(=O)C3CCCC3)C(=O)C2=CO1 (stereo unspecified) | 2450 nM |
| CN(C)CCOc1ccc(/C(=C(/CCCl)c2ccccc2)c2ccccc2)cc1 | 1140 nM |
| NC(=NCCCCCCN=C(N)/N=C(\N)Nc1ccc(Cl)cc1)/N=C(\N)Nc1ccc(Cl)cc1 | 2860 nM and 2310 nM |
| O=C(NC1CCCCC1)C(c1ccc(-c2ccccc2)cc1)n1c(=O)c(-c2ccco2)nc2ccccc21 (stereo unspecified) | 1880 nM |
| COCCN(CCOC)c1nc(N)c2c(N)nc3c(c2c1C#N)CC(=O)N3Cc1ccc(Cl)cc1 | 6570 nM |
| Cc1ccc(O)c(C(=O)C=Cc2ccccc2)c1 | 2460 nM |
| CCN(CC)CCOc1ccc(/C(=C(\Cl)c2ccccc2)c2ccccc2)cc1 | 2230 nM |
| CCOC1=CC2=C(C(=O)C(Cl)=CC2=O)[C@@H]2CN(S(=O)(=O)c3ccc(C)cc3)[C@@H](c3ccccc3)[C@H]12 | 1350 nM |
| COc1cc(OC)cc(C(=O)NC(=S)N(Cc2ccccc2)C(C)C)c1 | inactive |
| CSC(=Nc1ccccc1)N=C(SCc1ccccc1)N(C)C | 1180 nM |
| Cc1ccc(S(=O)(=O)N2C[C@@]3(O)Cn4c(=O)ccc(=O)n4C[C@@]3(OC(=O)NCC3CCCCC3)C2)cc1 | 6220 nM |
| CCN(CC)CCNC(=O)c1ccc(NC(=O)c2cn(-c3ccccc3)nc2-c2cccs2)cc1 | inactive |
| Cc1oc2c(c1C(=O)c1ccc(Cl)cc1)C(=O)C(=O)c1ccccc1-2 | 3990 nM |
| O=c1nc(/C=C/c2ccc(Cl)cc2Cl)cc(C(F)(F)F)[nH]1 | 2940 nM |
| CCN(CC)CCN(CC(=O)Nc1c(C)cc(C)cc1C)C(=O)c1ccccc1 | inactive |
| CCCCNC(=O)Nc1ccc2c(c1)N(C)C(=O)c1ccccc1S2 | 3190 nM |
| CC1=CC(C)(C)Nc2ccc(OC(=O)CN3C(=O)CCC3=O)cc21 | 1720 nM |
| O=CC1=C(c2ccccc2)Oc2ccccc2O1 | 2570 nM |
| Cc1ccc(S(=O)(=O)N2C[C@H]3n4c(=O)ccc(=O)n4C[C@H](OC(=O)Nc4cccs4)[C@@]3(O)C2)cc1 | 6500 nM |
| NC(=O)C(C(=O)/C=C/c1ccc(Cl)cc1)=C1SCCS1 | inactive |
| O=C(Cn1c(=O)n(Cc2ccco2)c(=O)c2c3c(sc21)CCCC3)Nc1ccccc1 | 8680 nM |
| CC(=O)Cc1cc(O)c2ccccc2c1OC(=O)c1ccccc1 | 2630 nM |

| SMILES | IC50 |
| --- | --- |
| CCC(c1nc2ccccc2[nH]1)n1c(=O)c(-c2ccco2)nc2ccccc21 (stereo unspecified) | 3970 nM |
| COc1ccc(C(C(=O)Nc2c(C)cccc2C)n2c(=O)c(-c3ccco3)nc3ccccc32)cc1 (stereo unspecified) | 1880 nM |
| O=C(NC1CCCCC1)C(c1cc2ccccc2o1)n1c(=O)c(-c2ccco2)nc2ccccc21 (stereo unspecified) | 1290 nM |
| CCOC(=O)c1c(NC(=O)/C=C/C(=O)O)sc(C)c1-c1ccc(C(C)(C)C)cc1 | 4810 nM |
| O=C1NC(=O)N(Cc2ccc(F)cc2)C(=O)/C1=C\C=C\c1ccco1 | 1690 nM |
| Cc1ccc(/C(O)=C2/C(=O)C(=O)OC2c2ccc(Cl)cc2)cc1 (stereo unspecified) | 9380 nM |
| O=c1[nH]c(C2CCN(S(=O)(=O)c3ccc(S(=O)(=O)NC4CC4)cc3)CC2)nc2c1nnn2Cc1ccc(F)cc1 | 3560 nM |
| CCCCC(=O)NC(c1cccc([N+](=O)[O-])c1)c1ccc2cccnc2c1O (stereo unspecified) | inactive |
| CC1=CC(C)(C)Nc2ccc(OC(=O)CN3C(=O)C4CCCCC4C3=O)cc21 (stereo unspecified) | 2300 nM |
| O=C(NCc1ccccc1)C(c1cc2ccccc2o1)n1c(=O)c(-c2ccco2)nc2ccccc21 (stereo unspecified) | 2310 nM |
| Cc1cc(C)c2nc(NNC(=O)c3ccc(S(=O)(=O)N4CCCC(C)C4)cc3)sc2c1 (stereo unspecified) | 3010 nM |
| COc1cc(C(C)=O)ccc1OCc1cn(CC(=O)c2ccc(O)cc2)nn1 | 4600 nM |
| N#Cc1ncc(Cc2ccccc2)nc1C#N | inactive |
| COc1ccc(C(C(=O)NC2CCCCC2)n2c(=O)c(-c3ccco3)nc3ccccc32)cc1 (stereo unspecified) | 1270 nM |
| O=[N+]([O-])/C=C/c1cn(Cc2ccc(F)cc2)c2ccccc12 | 7460 nM |
| O=C1NC(=O)N(Cc2ccccc2)C(=O)/C1=C\C=C\c1ccco1 | 1820 nM |
| CCC(C)NC(=O)Nc1ccc2c(c1)N(C)C(=O)c1ccccc1S2 (stereo unspecified) | 3700 nM |
| CC1=CC(C)(C)Nc2ccc(OC(=O)c3cccnc3)cc21 | 1930 nM |
| CCOC(=O)N1CCN(C(=O)C[C@@H]2C[C@@]3(C(=O)OCC)CCC=C3N(Cc3ccc(Cl)cc3Cl)C2=O)CC1 | 9780 nM |
| O=C(NC1CCCCC1)C(c1ccc(C(F)(F)F)cc1)n1c(=O)c(-c2ccco2)nc2ccccc21 (stereo unspecified) | 1670 nM |
| COc1ccc(C)c2sc(N(CCN(C)C)C(=O)/C=C/c3cccs3)nc12 | inactive |
| COc1ccc(NC(=O)C(c2cccc3ccccc23)n2c(=O)c(-c3ccco3)nc3ccccc32)cc1 (stereo unspecified) | inactive |
| Cc1cccc(C)c1NC(=O)C(c1ccccc1F)n1c(=O)c(-c2ccco2)nc2ccccc21 (stereo unspecified) | 2810 nM |
| CCCCCNC(=O)C(c1ccc(C(F)(F)F)cc1)n1c(=O)c(-c2ccco2)nc2ccccc21 (stereo unspecified) | 2910 nM |
| CCCCCCC=C1CCC(CN2CCCC2)C1=O (stereo unspecified) | 1370 nM |
| CCOC(=O)C1CCCN(C(=O)c2cc(Nc3ccc(OC)cc3)nc3ccccc23)C1 (stereo unspecified) | inactive |

| SMILES | IC50 |
| --- | --- |
| COc1ccc(NC(=O)C(c2ccnc3ccccc23)n2c(=O)c(-c3ccco3)nc3ccccc32)cc1 (stereo unspecified) | 4760 nM |
| O=C1NC(=S)NC(=O)C12C(c1ccccc1)NC(=S)NC2c1ccccc1 (stereo unspecified) | 4340 nM |
| CCc1nnc(NC(=O)c2nc(S(=O)(=O)Cc3ccccc3)ncc2Cl)s1 | 4250 nM |
| CC1=CC(C)(C)Nc2ccc(OC(=O)C(C)N3C(=O)c4ccccc4C3=O)cc21 (stereo unspecified) | 1820 nM |
| CCSc1ccc2c(c1)N(CCCN1CCN(C)CC1)c1ccccc1S2 | 6350 nM |
| CCN1C/C(=C/c2ccc(OC)c(O)c2)C(=O)/C(=C/c2ccc(OC)c(O)c2)C1 | 7540 nM |
| CN(C)CCN(Cc1ccco1)c1ccccn1 | inactive |
| CS(=O)(=O)c1ccc(C(=O)NCCN2C(=O)S/C(=C\c3cccnc3)C2=O)cc1[N+](=O)[O-] | 5140 nM |
| CC1=CC2C(C(O)CC3(C)C2CC(C)C32OCOC23COCO3)C2(C)C/C(=C\O)C(=O)C=C12 (stereo unspecified) | 3510 nM |
| CC(=O)Cc1cc(O)c2ccccc2c1OC(=O)c1ccc(Br)cc1 | 1600 nM |
| Cc1cccc(C)c1NC(=O)C(c1ccnc2ccccc12)n1c(=O)c(-c2ccco2)nc2ccccc21 (stereo unspecified) | 3320 nM |
| COc1ccccc1C=CC(=O)C=Cc1ccccc1OC | 5340 nM |
| CN1[C@@H]2CC[C@H]1CC(OC1c3ccccc3CCc3ccccc31)C2 (stereo partly specified) | 1920 nM |
| CCN(CC)CCOCCOC(=O)C1(c2ccccc2)CCCC1 | 1870 nM |
| Cc1cc(C)c(C(CC(=O)c2cccs2)C(C#N)C#N)c(C)c1 (stereo unspecified) | 6740 nM |
| COc1ccc(NC(=O)C(c2ccc(C#N)cc2)n2c(=O)c(-c3ccco3)nc3ccccc32)cc1 (stereo unspecified) | inactive |
| CN(C)c1ccc(Cc2cc3c(O)ccc(O)c3cc(Cc3ccc(N(C)C)cc3)c2=O)cc1 | 2400 nM |
| CC(C)(C)NC(=O)C(c1ccc(-c2ccccc2)cc1)n1c(=O)c(-c2ccco2)nc2ccccc21 (stereo unspecified) | 1670 nM |
| C#CCN(C[C@@H]1[C@@H](OC(=O)NC2CCCC2)[C@@H](OC(=O)NC2CCCC2)Cn2c(=O)ccc(=O)n21)S(=O)(=O)c1ccc(C)cc1 | 4750 nM |
| Cc1cccc(C)c1NC(=O)C(c1cccc2ccccc12)n1c(=O)c(-c2ccco2)nc2ccccc21 (stereo unspecified) | 2400 nM |
| c1ccc(CCC2=NCCn3cccc32)cc1 | inactive |
| O=C(NC1CCCCC1)C(c1ccccc1)n1c(=O)c(-c2ccco2)nc2ccccc21 (stereo unspecified) | 964 nM |
| Oc1c(C(c2ccccc2)N2CCCCC2)ccc2ccccc12 (stereo unspecified) | 1010 nM |
| CN(C)CCOC1(Cc2ccc(F)cc2)CCC(C(C)(C)C)CC1 (stereo unspecified) | 9950 nM |
| CC1CCN(S(=O)(=O)c2ccc(NC(=O)Cc3ccccc3)cc2)CC1 | 5330 nM |
| O=C1C(=O)c2c(C(=O)c3ccccc3)coc2-c2ccccc21 | 4970 nM |

| SMILES | IC50 |
| --- | --- |
| CCCC(=O)NC(c1cccc([N+](=O)[O-])c1)c1ccc2cccnc2c1O (stereo unspecified) | > 39800 nM (inactive) |
| CC(=O)Oc1c(Cl)c(N2CCOCC2)c(OC(C)=O)c2ccccc12 | 4440 nM |
| N#Cc1ccc(C(C(=O)NC2CCCCC2)n2c(=O)c(-c3ccco3)nc3ccccc32)cc1 (stereo unspecified) | 1920 nM |
| Cc1cccc(C)c1OCc1cn(CC(=O)c2ccc(O)cc2)nn1 | 2980 nM |
| O=C(O)CC(O)(CC(=O)O)C(=O)O | 3710 nM |
| Cc1cc(C)c(NC(=O)CN2CCN3CCCC3C2)c(C)c1 (stereo unspecified) | inactive |
| O=C(NC1CCCCC1)C(c1ccnc2ccccc12)n1c(=O)c(-c2ccco2)nc2ccccc21 (stereo unspecified) | 2250 nM |
| COc1cc2c(cc1OC)C(C)N(CCc1ccc(Cl)cc1)CC2 (stereo unspecified) | inactive |
| CN(C)CCCNC(=O)c1ccc(-c2nc(-c3ccc(Cl)cc3)cs2)cc1 | inactive |
| CC1=CC(C)(C)Nc2ccc(OC(=O)CN3C(=O)c4cccc5cccc(c45)C3=O)cc21 | 6420 nM |
| O=C(NCc1ccccc1)C(c1ccc(-c2ccccc2)cc1)n1c(=O)c(-c2ccco2)nc2ccccc21 (stereo unspecified) | 3440 nM |
| COc1ccc(-c2cc(N)n(S(=O)(=O)c3c(F)c(F)c(F)c(F)c3F)n2)cc1OC | 9950 nM |
| O=C(/C=C/c1ccc2c(c1)OCCCO2)c1ccccc1O | 5520 nM |
| COc1ccc(OCc2cn(CC(=O)c3ccc(O)cc3)nn2)cc1 | 3770 nM |
| COc1ccccc1-c1cc(C(=O)NC2CCN(C)CC2)c2ccc(Cl)c(C)c2n1 | inactive |
| CCN(CC)CCC(C)OC(c1ccccc1)c1ccccc1 (stereo unspecified) | 2600 nM |
| CC(C)c1ccc(N2C=Nc3ccc(C(C)C)cc3C2)cc1 | 7980 nM |
| Cc1ccc(CC2(OCCN(C)C)CCC(C(C)(C)C)CC2)cc1 (stereo unspecified) | 9480 nM |
| CC(C)(C)NC(=O)C(c1cc2ccccc2o1)n1c(=O)c(-c2ccco2)nc2ccccc21 (stereo unspecified) | 1930 nM |
| CC(c1nc2ccccc2[nH]1)n1c(=O)c(-c2ccco2)nc2ccccc21 (stereo unspecified) | 3370 nM |
| Cc1ccc(NC(=O)CSc2nnc(-c3ccco3)c(-c3ccco3)n2)cc1 | 2660 nM |
| CCCCCNC(=O)C(c1cc2ccccc2o1)n1c(=O)c(-c2ccco2)nc2ccccc21 (stereo unspecified) | 1480 nM |
| CCSc1nnc(NC(=O)c2nc(S(=O)(=O)Cc3ccc(F)cc3)ncc2Cl)s1 | 2680 nM |
